# Source: patent US9120854B2, “Detection and treatment of pancreatic, ovarian and other cancers” (SEATTLE GENETICS, INC., priority 2008, dated 2015)
# Like-named read-outs stand apart in the source and are kept apart here. Square brackets hold non-standard residues; d marks the D form. Peptide text beside a SMILES is read from it. Dolaproine = CO[C@@H]([C@@H]1CCCN1)[C@@H](C)C(=O)O; Dil = CC[C@H](C)[C@H](NC)[C@@H](CC(=O)O)OC; NMeV = CN[C@H](C(=O)O)C(C)C
# B1: h1F6mc-MMAF(8) (conjugate, chains of the INN, looked up)
# VH: QVQLVQSGAEVKKPGASVKVSCKASGYTFTNYGMNWVRQAPGQGLKWMGWINTYTGEPTYADAFKGRVTMTRDTSISTAYMELSRLRSDDTAVYYCARDYGDYGMDYWGQGTTVTVSS
# VL: DIVMTQSPDSLAVSLGERATINCRASKSVSTSGYSFMHWYQQKPGQPPKLLIYLASNLESGVPDRFSGSGSGTDFTLTISSLQAEDVAVYYCQHSREVPWTFGQGTKVEIK
# modifications: maleimidocaproyl-MMAF, 8 drugs per antibody
# Assays:
# [1] = system: native CD70 protein (modified cynomolgus CD70); test: Binding of h1F6 to native CD70 on transfected pancreatic cell lines; conditions: transfected HPAFII, PANC-1 and MiaPaCa-2 cell lines
# SKOV-3 cells = test: In vitro cytotoxic activity of h1F6 antibody drug conjugates on SKOV-3 cells (CelltiterGlo viability); assay type: cell-based; conditions: 96 hours, viability by Promega CelltiterGlo
# Protocol: (See International Patent Publication WO 2006-113909.) The cells were incubated with the following anti-CD70 antibody drug conjugates: h1F6-vc-MMAF(4), h1F6vc-MMAE(4), 1F6mc-MMAF(4), or h1F6mc-MMAF(8) or free MMAF. (See the specification and U.S. Patent Application Publication Nos. 2005-0238649 and 2006-0233794 for a description of the drug linkers. The number in parentheses after each conjugate indicates the average drug loading per antibody.) The SKOV-3 cells were incubated with the conjugates at the indicated concentrations for 96 hours. For these studies, viability was determined using Promega CelltiterGlo.
molecule,measurement,setting,value
"h1F6: humanized form of anti-CD70 monoclonal antibody 1F6, binds native CD70",binding to native CD70 protein,[1],binds
"CC[C@H](C)[C@@H]([C@@H](CC(=O)N1CCC[C@H]1[C@H](OC)[C@@H](C)C(=O)N[C@@H](Cc1ccccc1)C(=O)O)OC)N(C)C(=O)[C@@H](NC(=O)[C@@H](NC)C(C)C)C(C)C [MMAF, dovaline-valine-dolaisoleunine-dolaproine-phenylalanine, reference compound] (H-[NMeV]V[Dil][Dolaproine]F-OH)",IC50,"SKOV-3 cells; free MMAF, read-out: IC50",18 nM
B1,IC50,SKOV-3 cells,0.012 µg/mL
